Results on eight compounds are retold here after US11034650B2, “Compounds useful for treating a Mannheimia haemolytica or Histophilus somni infection” (Intervet Inc., priority 2016, dated 2021).

Values after ≈ are worked out from the molar mass of the structure shown. Bounds are passed on as bounds.

Holding throughout (assay type): cell-based
Experiment [1] relates to Mannheimia haemolytica MH 6357 (M7/2, reference strain, cattle infection strain). As to the kind of experiment: MIC, broth-microdilution (CLSI VET01-A4), strain MH 6357. The conditions noted are these: Mannheimia haemolytica strain MH 6357, broth-microdilution; unit assumed. The method in brief: (§1)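 Compounds were serially diluted twofold in microdilution trays. Growth was judged by eye, and the MIC was the lowest concentration showing no turbidity. Results were interpreted per CLSI VET01-S3.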

Experiment [2] concerns Mannheimia haemolytica MH 6374 (ATCC 33396, reference strain). The experiment can be described thus: MIC, broth-microdilution (CLSI VET01-A4), strain MH 6374. The conditions noted are these: Mannheimia haemolytica strain MH 6374, broth-microdilution; unit assumed. The gist of the method:
as §1

The test system of experiment [3] is Mannheimia haemolytica MH 10720 (154, BRD field isolate). As to the kind of experiment: MIC, broth-microdilution (CLSI VET01-A4), strain MH 10720. Conditions: Mannheimia haemolytica strain MH 10720, broth-microdilution; unit assumed. The method in brief:
as §1
In general terms: In broth dilution the organism is exposed to a series of concentrations in liquid medium.

In experiment [4] the test system is Mannheimia haemolytica MH 12587 (1071, BRD field isolate, macrolide-resistance: erm+, E+). The experiment can be described thus: MIC, broth-microdilution (CLSI VET01-A4), strain MH 12587. Conditions: Mannheimia haemolytica strain MH 12587, broth-microdilution; unit assumed. The gist of the method: as §1
In experiment [5] the test system is Mannheimia haemolytica MH 13065 (XB0446-6003.9, BRD field isolate). The experiment can be described thus: MIC, broth-microdilution (CLSI VET01-A4), strain MH 13065. The conditions noted are these: Mannheimia haemolytica strain MH 13065, broth-microdilution; unit assumed. The method in brief: as §1
Experiment [6] relates to Mannheimia haemolytica MH 13093 (XB0472-6014.1, BRD field isolate). The experiment can be described thus: MIC, broth-microdilution (CLSI VET01-A4), strain MH 13093. Conditions: Mannheimia haemolytica strain MH 13093, broth-microdilution; unit assumed. The method in brief:
as §1

In experiment [7] the test system is Pasteurella multocida PM 6267 (P 2225 (L386), reference strain, mouse infection strain). As to the kind of experiment: MIC, broth-microdilution (CLSI VET01-A4), strain PM 6267. The conditions noted are these: Pasteurella multocida strain PM 6267, broth-microdilution; unit assumed. The gist of the method:
as §1

Experiment [8] relates to Pasteurella multocida PM 6391 (ATCC 43137, reference strain). The experiment can be described thus: MIC, broth-microdilution (CLSI VET01-A4), strain PM 6391. The conditions noted are these: Pasteurella multocida strain PM 6391, broth-microdilution; unit assumed. The method in brief:
as §1

The test system of experiment [9] is Pasteurella multocida PM 10775 (080130003051, BRD field isolate). The experiment can be described thus: MIC, broth-microdilution (CLSI VET01-A4), strain PM 10775. The conditions noted are these: Pasteurella multocida strain PM 10775, broth-microdilution; unit assumed. The gist of the method: as §1
For experiment [10], the system named is Pasteurella multocida PM 12080 (IV102277-0093, BRD field isolate). The experiment can be described thus: MIC, broth-microdilution (CLSI VET01-A4), strain PM 12080. Conditions: Pasteurella multocida strain PM 12080, broth-microdilution; unit assumed. The gist of the method: as §1

Compound `CCNCc1ccc(C#Cc2ccc(C(=O)N[C@H](C(=O)NO)[C@@H](C)CC)cc2)cc1` [Compound 176] yielded an MIC MH 6357 in experiment [1] of 3.1 µg/mL (≈ 7.61 µM). Moreover, in [2], the MIC MH 6374 came to 6.3 µg/mL (≈ 15.5 µM). In experiment [3], the MIC MH 10720 was determined as 3.1 µg/mL (≈ 7.61 µM). The MIC MH 12587 in experiment [4] is 12.5 µg/mL (≈ 30.7 µM). For the same compound, in [5], the MIC MH 13065 was 6.3 µg/mL (≈ 15.5 µM). This compound returned an MIC MH 13093 in [6] of 12.5 µg/mL (≈ 30.7 µM). For the same compound, the MIC PM 6267 in experiment [7] is 0.8 µg/mL (≈ 1.96 µM). For the same compound, the MIC PM 6391 in experiment [8] was found to be 3.1 µg/mL (≈ 7.61 µM). Also, in [9], the MIC PM 10775 is ≤ 0.1 µg/mL. The same compound registered an MIC PM 12080 in [10] of 1.6 µg/mL (≈ 3.93 µM).

Regarding `CC[C@H](C)[C@H](NC(=O)c1ccc(C#Cc2ccc(CNCCCOC)cc2)cc1)C(=O)NO` [Compound 177], in experiment [1], the MIC MH 6357 was determined as 3.1 µg/mL (≈ 6.86 µM). The compound also gave an MIC MH 6374 in experiment [2] of 6.3 µg/mL (≈ 14 µM). In addition, in [3], the MIC MH 10720 was 1.6 µg/mL (≈ 3.54 µM). This compound gave an MIC MH 12587 in experiment [4] of 12.5 µg/mL (≈ 27.7 µM). This compound had an MIC MH 13065 in experiment [5] of 6.3 µg/mL (≈ 14 µM). For the same compound, the MIC MH 13093 in experiment [6] worked out at 6.3 µg/mL (≈ 14 µM). Moreover, the MIC PM 6267 in experiment [7] amounted to 0.8 µg/mL (≈ 1.77 µM). In addition, the MIC PM 6391 in experiment [8] is 3.1 µg/mL (≈ 6.86 µM). Further, in experiment [9], the MIC PM 10775 was ≤ 0.1 µg/mL. In experiment [10], this compound displayed an MIC PM 12080 of 1.6 µg/mL (≈ 3.54 µM).

With `CC[C@H](C)[C@H](NC(=O)c1ccc(C#Cc2ccc(CN(C)CCOC)cc2)cc1)C(=O)NO` [Compound 178], in experiment [1], the MIC MH 6357 was 1.6 µg/mL (≈ 3.54 µM). For the same compound, the MIC MH 6374 in experiment [2] was found to be 3.1 µg/mL (≈ 6.86 µM). This compound also showed an MIC MH 10720 in [3] of 0.8 µg/mL (≈ 1.77 µM). Moreover, the MIC MH 12587 in experiment [4] is 6.3 µg/mL (≈ 14 µM). The MIC MH 13065 in experiment [5] came out at 1.6 µg/mL (≈ 3.54 µM). This compound also returned an MIC MH 13093 in experiment [6] of 3.1 µg/mL (≈ 6.86 µM). In experiment [7], this compound gave an MIC PM 6267 of 0.2 µg/mL (≈ 0.443 µM). Also, the MIC PM 6391 in experiment [8] is 0.8 µg/mL (≈ 1.77 µM). The MIC PM 10775 in experiment [9] was ≤ 0.1 µg/mL. In [10], the MIC PM 12080 is 0.4 µg/mL (≈ 0.886 µM).

The compound `CC[C@H](C)[C@H](NC(=O)c1ccc(C#Cc2ccc(CNCc3cccnc3)cc2)cc1)C(=O)NO` [Compound 179] had an MIC MH 6357 in experiment [1] of 0.4 µg/mL (≈ 0.85 µM). Besides, in experiment [2], the MIC MH 6374 came out at 0.8 µg/mL (≈ 1.7 µM). Further, in experiment [3], the MIC MH 10720 was ≤ 0.1 µg/mL. The MIC MH 12587 in experiment [4] is 1.6 µg/mL (≈ 3.4 µM). Besides, in [5], the MIC MH 13065 came out at 0.8 µg/mL (≈ 1.7 µM). Besides, the MIC MH 13093 in experiment [6] turned out to be 0.8 µg/mL (≈ 1.7 µM). Moreover, in [7], the MIC PM 6267 was 0.2 µg/mL (≈ 0.425 µM). This compound displayed an MIC PM 6391 in [8] of 1.6 µg/mL (≈ 3.4 µM). In experiment [9], the MIC PM 10775 is ≤ 0.1 µg/mL. Moreover, in experiment [10], the MIC PM 12080 came out at 0.4 µg/mL (≈ 0.85 µM).

In experiment [1], `CC[C@H](C)[C@H](NC(=O)c1ccc(C#Cc2ccc(CNCc3ccccn3)cc2)cc1)C(=O)NO` [Compound 180] yielded an MIC MH 6357 of 0.8 µg/mL (≈ 1.7 µM). Moreover, the MIC MH 6374 in [2] stood at 1.6 µg/mL (≈ 3.4 µM). In experiment [3], this compound returned an MIC MH 10720 of 0.2 µg/mL (≈ 0.425 µM). In addition, in experiment [4], the MIC MH 12587 was 3.1 µg/mL (≈ 6.59 µM). This compound displayed an MIC MH 13065 in experiment [5] of 1.6 µg/mL (≈ 3.4 µM). The compound also registered an MIC MH 13093 in experiment [6] of 1.6 µg/mL (≈ 3.4 µM). The compound also displayed an MIC PM 6267 in experiment [7] of 0.4 µg/mL (≈ 0.85 µM). Further, the MIC PM 6391 in [8] amounted to 1.6 µg/mL (≈ 3.4 µM). Also, the MIC PM 10775 in [9] was ≤ 0.1 µg/mL. The MIC PM 12080 in experiment [10] is 0.8 µg/mL (≈ 1.7 µM).

For `CC[C@H](C)[C@H](NC(=O)c1ccc(C#Cc2ccc(CNCc3ccco3)cc2)cc1)C(=O)NO` [Compound 181], the MIC MH 6357 in experiment [1] was found to be 0.4 µg/mL (≈ 0.87 µM). In [2], this compound came in with an MIC MH 6374 of 0.8 µg/mL (≈ 1.74 µM). Further, the MIC MH 10720 in experiment [3] is ≤ 0.1 µg/mL. The compound also came in with an MIC MH 12587 in experiment [4] of 1.6 µg/mL (≈ 3.48 µM). The compound further had an MIC MH 13065 in [5] of 0.8 µg/mL (≈ 1.74 µM). The same compound showed an MIC MH 13093 in experiment [6] of 0.8 µg/mL (≈ 1.74 µM). In experiment [7], this compound displayed an MIC PM 6267 of 0.4 µg/mL (≈ 0.87 µM). The same compound gave an MIC PM 6391 in [8] of 0.8 µg/mL (≈ 1.74 µM). In addition, the MIC PM 10775 in experiment [9] was ≤ 0.1 µg/mL. This compound also yielded an MIC PM 12080 in experiment [10] of 0.4 µg/mL (≈ 0.87 µM).

`CC[C@H](C)[C@H](NC(=O)c1ccc(C#Cc2ccc(CNCc3cccs3)cc2)cc1)C(=O)NO` [Compound 182] came in with an MIC MH 6357 in experiment [1] of 0.4 µg/mL (≈ 0.841 µM). The compound further showed an MIC MH 6374 in experiment [2] of 1.6 µg/mL (≈ 3.36 µM). The MIC MH 10720 in experiment [3] was found to be 0.2 µg/mL (≈ 0.421 µM). In [4], this compound had an MIC MH 12587 of 1.6 µg/mL (≈ 3.36 µM). Moreover, the MIC MH 13065 in experiment [5] worked out at 0.8 µg/mL (≈ 1.68 µM). The MIC MH 13093 in experiment [6] was 0.8 µg/mL (≈ 1.68 µM). In addition, the MIC PM 6267 in [7] was 0.2 µg/mL (≈ 0.421 µM). Further, the MIC PM 6391 in experiment [8] came to 0.8 µg/mL (≈ 1.68 µM). In addition, the MIC PM 10775 in experiment [9] is ≤ 0.1 µg/mL. Also, the MIC PM 12080 in experiment [10] turned out to be 0.2 µg/mL (≈ 0.421 µM).

For `CC[C@H](C)[C@H](NC(=O)c1ccc(C#Cc2ccc(CNCC3CCCO3)cc2)cc1)C(=O)NO` (some centres unmarked) [Compound 183], the MIC MH 6357 in [1] amounted to 1.6 µg/mL (≈ 3.45 µM). The compound also displayed an MIC MH 6374 in experiment [2] of 3.1 µg/mL (≈ 6.69 µM). Moreover, the MIC MH 10720 in experiment [3] stood at 0.8 µg/mL (≈ 1.73 µM). In experiment [4], the MIC MH 12587 was determined as 1.6 µg/mL (≈ 3.45 µM). In experiment [5], this compound came in with an MIC MH 13065 of 3.1 µg/mL (≈ 6.69 µM). Moreover, the MIC MH 13093 in experiment [6] came to 3.1 µg/mL (≈ 6.69 µM). The MIC PM 6267 in experiment [7] amounted to 0.4 µg/mL (≈ 0.863 µM). In experiment [8], this compound showed an MIC PM 6391 of 1.6 µg/mL (≈ 3.45 µM). In addition, the MIC PM 10775 in experiment [9] is ≤ 0.1 µg/mL. Also, the MIC PM 12080 in experiment [10] was 0.8 µg/mL (≈ 1.73 µM).
